From patent US8049015B2 (Panmira Pharmaceuticals, LLC, priority 2008, dated 2011)

Biological target: T1, human DP2 receptor (Homo sapiens, UniProt Q9Y5Y4)
T1 construct: expressed in transfected cells
T1 sequence (Q9Y5Y4 1-395): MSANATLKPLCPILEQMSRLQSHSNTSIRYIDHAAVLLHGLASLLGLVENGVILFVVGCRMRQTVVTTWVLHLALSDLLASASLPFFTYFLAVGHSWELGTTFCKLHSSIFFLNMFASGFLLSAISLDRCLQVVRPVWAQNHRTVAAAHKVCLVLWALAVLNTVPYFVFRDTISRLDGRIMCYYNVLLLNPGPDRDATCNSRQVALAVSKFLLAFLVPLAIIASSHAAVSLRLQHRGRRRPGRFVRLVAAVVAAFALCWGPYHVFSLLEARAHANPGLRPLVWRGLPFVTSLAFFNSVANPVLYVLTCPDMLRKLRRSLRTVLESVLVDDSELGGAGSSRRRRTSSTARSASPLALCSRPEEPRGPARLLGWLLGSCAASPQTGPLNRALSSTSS
Test: DP2/CRTH2 binding assay (radioligand binding with [3H]PGD2)
Details: [3H]PGD2 binding, membranes of HEK293 cells expressing recombinant human DP2; read-out: hDP2
Method: The ability of a compound to bind to the human DP2 receptor is assessed via a radioligand binding assay using [^3H]PGD2. HEK293 cells stably expressing recombinant human DP2 are resuspended in 10 mM Hepes, 7.4 containing 1 mM DTT, lysed and centrifuged at 75,000×g to pellet the membranes. The membranes are resuspended in 10 mM Hepes, 7.4 containing 1 mM DTT and 10% glycerol to approximately 5 mg protein/ml. Membranes (2-10 μg protein/well) are incubated in 96-well plates with 1 nM [^3H]PGD2 and test compound in Assay Buffer (50 mM Hepes, 10 mM MnCl2, 1 mM EDTA, plus or minus 0.2% human serum albumin, pH 7.4) for 60 minutes at room temperature. The reactions are terminated by rapid filtration through Whatman GF/C glass fibre filter plates. The filter plates were pre-soaked in 0.33% polythylenimine for 30 minutes at room temperature then washed in Wash Buffer (50 mM Hepes, 0.5 M NaCl pH 7.4) prior to harvesting. After harvesting, the filter plates are washed 3 times with 1 ml cold Wash Buffer then dried. Scintillant is then added to the plates and the radioactivity retained on the filters is determined on a Packard TopCount (Perkin Elmer). Specific binding is determined as total radioactive binding minus non-specific binding in the presence of 10 μM PGD2. IC50s were determined using GraphPad prism analysis of drug titration curves.

CCN(Cc1cc(C(F)(F)F)ccc1-c1cc(CC(=O)O)cnc1OC)C(C)=O [Compound 41, (5-{2-[(N-Acetyl-N-ethyl-amino)-methyl]-4-trifluoromethyl-phenyl}-6-methoxy-pyridin-3-yl)-acetic acid]
IC50: 300 to 1000 nM

CCN(Cc1cc(C(F)(F)F)ccc1-c1cncc(CC(=O)O)c1)C(=O)OCc1ccccc1 [Compound 12, (5-{2-[(N-Benzyloxycarbonyl-N-ethyl-amino)-methyl]-4-trifluoromethyl-phenyl}-pyridin-3-yl)-acetic acid]
IC50: < 300 nM

CCN(Cc1cc(C(F)(F)F)ccc1-c1cncc(CC(=O)O)c1)C(=O)CCc1cccnc1 [Compound 36, [5-(2-{[N-Ethyl-N-(3-pyridin-3-yl-propionyl)-amino]-methyl}-4-trifluoromethyl-phenyl)-pyridin-3-yl]-acetic acid]
IC50: 300 to 1000 nM

CCN(Cc1cc(C(F)(F)F)ccc1-c1cncc(CC(=O)O)c1)C(=O)c1cc(OC)nc(OC)n1 [Compound 30]
IC50: > 1000 nM

CCN(Cc1cc(SC)ccc1-c1cncc(CC(=O)O)c1)C(=O)C1CC1 [Compound 21, (5-{2-[(N-Cyclopropanecarbonyl-N-ethyl-amino)-methyl]-4-methylsulfanyl-phenyl}-pyridin-3-yl)-acetic acid]
IC50: < 300 nM

CCN(Cc1cc(C(F)(F)F)ccc1-c1cncc(CC(=O)O)c1)C(=O)CCc1ccccc1 [Compound 25, [5-(2-{[N-Ethyl-N-(3-phenyl-propionyl)-amino]-methyl}-4-trifluoromethyl-phenyl)-pyridin-3-yl]-acetic acid]
IC50: < 300 nM

CCN(Cc1cc(C(F)(F)F)ccc1-c1cc(CC(=O)O)c[n+]([O-])c1)C(=O)OCc1ccccc1 [Compound 15, (5-{2-[(N-Benzyloxycarbonyl-N-ethyl-amino)-methyl]-4-trifluoromethyl-phenyl}-1-oxy-pyridin-3-yl)-acetic acid]
IC50: < 300 nM

CC(=O)N(Cc1ccccc1)Cc1cc(C(F)(F)F)ccc1-c1cc(CC(=O)O)cnc1O [Compound 26, (5-{2-[(N-Acetyl-N-benzyl-amino)-methyl]-4-trifluoromethyl-phenyl}-6-hydroxy-pyridin-3-yl)-acetic acid]
IC50: < 300 nM

CCN(Cc1cc(C(F)(F)F)ccc1-c1cc(CC(=O)O)cnc1OCC(F)(F)F)C(=O)C1CC1 [Compound 39, [5-{2-[(N-Cyclopropanecarbonyl-N-ethyl-amino)-methyl]-4-trifluoromethyl-phenyl}-6-(2,2,2-trifluoro-ethoxy)-pyridin-3-yl]-acetic acid]
IC50: < 300 nM

CCN(Cc1cc(C(F)(F)F)ccc1-c1cncc(CC(=O)O)c1)C(=O)Cc1ccc(C)nc1 [Compound 37, {5-[2-({N-Ethyl-N-[2-(6-methyl-pyridin-3-yl)-acetyl]-amino}-methyl)-4-trifluoromethyl-phenyl]-pyridin-3-yl}-acetic acid]
IC50: < 300 nM

CC(=O)N(Cc1ccccc1)Cc1cc(C(F)(F)F)ccc1-c1cnc(Cl)c(CC(=O)O)c1 [Compound 20, (5-{2-[(N-Acetyl-N-benzyl-amino)-methyl]-4-trifluoromethyl-phenyl}-2-chloro-pyridin-3-yl)-acetic acid]
IC50: < 300 nM

CCOCC(=O)N(CC)Cc1cc(C(F)(F)F)ccc1-c1cncc(CC(=O)O)c1 [Compound 35, [5-(2-{[N-(2-Ethoxy-acetyl)-N-ethyl-amino]-methyl}-4-trifluoromethyl-phenyl)-pyridin-3-yl]-acetic acid]
IC50: 300 to 1000 nM

CCN(Cc1cc(C(F)(F)F)ccc1-c1cc(CC(=O)O)cnc1OC)C(=O)COC [Compound 42, [5-(2-{[N-Ethyl-N-(2-methoxy-acetyl)-amino]-methyl}-4-trifluoromethyl-phenyl)-6-methoxy-pyridin-3-yl]-acetic acid]
IC50: < 300 nM

O=C(O)Cc1cncc(-c2ccc(C(=O)NCc3ccccc3)cc2CN(Cc2ccccc2)C(=O)C2CC2)c1 [Compound 5, (5-{4-Benzylcarbamoyl-2-[(N-benzyl-N-cyclopropanecarbonyl-amino)-methyl]-phenyl}-pyridin-3-yl)-acetic acid]
IC50: < 300 nM
